Blank lines part the entries; values can stand above or below the molecule they belong to.
Columns and labels:
MRP4 = molecular target: T1, MRP4 (Homo sapiens, UniProt O15439); experiment: Vesicular transport inhibition assay (ABC), MRP4-mediated DHEAS transport, HEK293 membrane vesicles; format: in vitro ADME; details: positive control inhibitor 150.0 µM, DHEAS probe
T1 construct: host or cells: HEK293 (membrane vesicles)
T1 sequence (O15439 1-1325): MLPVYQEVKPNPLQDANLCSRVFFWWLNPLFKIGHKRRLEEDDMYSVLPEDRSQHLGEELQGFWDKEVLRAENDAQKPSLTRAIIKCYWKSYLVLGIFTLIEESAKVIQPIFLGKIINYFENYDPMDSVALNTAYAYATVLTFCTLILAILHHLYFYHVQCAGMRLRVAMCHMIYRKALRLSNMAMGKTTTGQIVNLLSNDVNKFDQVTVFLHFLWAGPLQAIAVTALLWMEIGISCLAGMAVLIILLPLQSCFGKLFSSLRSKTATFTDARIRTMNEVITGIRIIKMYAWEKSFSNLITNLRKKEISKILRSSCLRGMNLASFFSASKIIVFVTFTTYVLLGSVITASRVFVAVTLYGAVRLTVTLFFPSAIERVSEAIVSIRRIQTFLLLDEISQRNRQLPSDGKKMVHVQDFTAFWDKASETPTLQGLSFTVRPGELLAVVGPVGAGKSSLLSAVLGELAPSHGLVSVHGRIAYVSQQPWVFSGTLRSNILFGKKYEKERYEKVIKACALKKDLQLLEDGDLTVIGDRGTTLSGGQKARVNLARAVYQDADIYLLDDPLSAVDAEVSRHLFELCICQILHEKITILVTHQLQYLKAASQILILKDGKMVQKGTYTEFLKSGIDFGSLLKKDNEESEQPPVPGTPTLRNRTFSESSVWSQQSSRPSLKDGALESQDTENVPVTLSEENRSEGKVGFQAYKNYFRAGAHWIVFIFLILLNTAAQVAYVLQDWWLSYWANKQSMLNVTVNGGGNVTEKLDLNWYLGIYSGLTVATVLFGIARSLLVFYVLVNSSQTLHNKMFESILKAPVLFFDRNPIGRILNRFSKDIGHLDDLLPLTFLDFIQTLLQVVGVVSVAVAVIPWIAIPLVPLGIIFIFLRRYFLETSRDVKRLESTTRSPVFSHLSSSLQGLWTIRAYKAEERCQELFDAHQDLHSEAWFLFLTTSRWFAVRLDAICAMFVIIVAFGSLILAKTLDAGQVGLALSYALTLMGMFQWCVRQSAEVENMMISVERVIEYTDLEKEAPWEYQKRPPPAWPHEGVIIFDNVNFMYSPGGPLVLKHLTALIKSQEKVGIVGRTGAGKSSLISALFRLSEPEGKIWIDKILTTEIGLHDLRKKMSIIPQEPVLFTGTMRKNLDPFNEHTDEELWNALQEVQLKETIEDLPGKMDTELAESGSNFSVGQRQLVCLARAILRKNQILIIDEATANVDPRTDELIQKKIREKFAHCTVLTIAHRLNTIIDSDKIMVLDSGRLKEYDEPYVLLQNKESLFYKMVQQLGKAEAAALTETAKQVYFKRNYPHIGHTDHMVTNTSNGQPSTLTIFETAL

MDR1 = MDR1 (Homo sapiens, UniProt P08183)
Procedure: The incubations were carried out in the presence of 4 mM ATP or AMP to distinguish between transporter-mediated uptake and passive diffusion into the vesicles. […] Afterwards, the reaction mixtures were pre-incubated for 15 min at 37 °C for MRP1 or at 32 °C for BCRP, MDR1 and MRP4, respectively. The transporter assay was initiated through the addition of 25 μL of pre-warmed 12 mM MgATP (or 12 mM AMP in assay buffer as a background control). The reactions were quenched through the addition of 200 μL of ice-cold washing buffer and immediate filtration via glass fiber filters mounted onto a 96-well plate (filter plate). The filters were washed (5 × 200 μL of ice-cold washing buffer) and dried, and the amount of probe substrate inside the filtered vesicles was determined using LSC. The experiments were conducted in triplicate.
Calculation of ATP-dependent transport and inhibition for vesicular transport inhibition
For all wells the amount of the translocated probe substrate was determined in counts per minute (cpm).
ATP-dependent transport (pmol/mg protein/min) is calculated for each concentration using the following
𝐴𝑐𝑐𝐴𝑇𝑃 ∙ 𝑉 ∙ 𝐶𝐶 𝐴𝑐𝑐𝐴𝑀𝑃 ∙𝑉 ∙𝐶𝐶
𝐴𝑇𝑃 − 𝑑𝑒𝑝𝑒𝑛𝑑𝑒𝑛𝑡 𝑎𝑐𝑐𝑢𝑚𝑢𝑙𝑎𝑡𝑖𝑜𝑛 = ( 𝑇𝐶𝑃𝑀 𝑠𝑢𝑏) − ( 𝑇𝐶𝑃𝑀 𝑠𝑢𝑏)
• AccATP: probe substrate accumulation with ATP (cpm)
• AccAMP: probe substrate accumulation with AMP (cpm)
• Tcpm: cpm in dosing solution V: volume per well (µL)
• CCsub: probe substrate concentration (µM)
• Prot: total protein per well (mg)
• t: incubation time (min)
Relative ATP-dependent transport (%) values were calculated using the following equation:
𝑅𝑒𝑙𝑎𝑡𝑖𝑣𝑒 𝐴𝑇𝑃 − 𝑑𝑒𝑝𝑒𝑛𝑑𝑒𝑛𝑡 𝑡𝑟𝑎𝑛𝑠𝑝𝑜𝑟𝑡 (%) = 𝐴 − 𝐵 ∙ 100
• A: amount of translocated substrate in the presence of test substance (TS) and ATP
• B: amount of translocated substrate in the presence of test substance (TS) and AMP
• C: amount of translocated substrate in the presence of solvent and ATP
• D: amount of translocated substrate in the presence of solvent and AMP
Relative inhibition (%) is calculated by setting probe substrate transport in the absence of test substance as
𝑅𝑒𝑙𝑎𝑡𝑖𝑣𝑒 𝑖𝑛ℎ𝑖𝑏𝑖𝑡𝑖𝑜𝑛 (%) = 𝐴𝑐𝑐𝑆𝑝𝑒𝑐𝑖𝑓𝑖𝑐,𝑥 ∙100
• Accspecific,x: transporter specific accumulation for a given sample (pmol/mg/min)
• Accspecific,vehicle: transporter specific accumulation for a solvent control (pmol/mg/min)
Data are expressed as mean (n=3)
N-methyl quinidine (NMQ) measured in the vesicular transport inhibition assay.
Nominal ATP Relative ATP Relative
Compound concentration [µM] dependent transport dependent transport inhibition [%]
[pmol/mg/min] [% of control]
Data are expressed as mean (n=3) ± SD.

[1] = set-up: method as in PMID 37191680; details: PSMA-null mice; cited from earlier work
[2] = cited from earlier work
[3] = set-up: method as in PMID 29651569; details: within the first 24 h post injection; cited from earlier work

MDR1, sequence (P08183 whole entry): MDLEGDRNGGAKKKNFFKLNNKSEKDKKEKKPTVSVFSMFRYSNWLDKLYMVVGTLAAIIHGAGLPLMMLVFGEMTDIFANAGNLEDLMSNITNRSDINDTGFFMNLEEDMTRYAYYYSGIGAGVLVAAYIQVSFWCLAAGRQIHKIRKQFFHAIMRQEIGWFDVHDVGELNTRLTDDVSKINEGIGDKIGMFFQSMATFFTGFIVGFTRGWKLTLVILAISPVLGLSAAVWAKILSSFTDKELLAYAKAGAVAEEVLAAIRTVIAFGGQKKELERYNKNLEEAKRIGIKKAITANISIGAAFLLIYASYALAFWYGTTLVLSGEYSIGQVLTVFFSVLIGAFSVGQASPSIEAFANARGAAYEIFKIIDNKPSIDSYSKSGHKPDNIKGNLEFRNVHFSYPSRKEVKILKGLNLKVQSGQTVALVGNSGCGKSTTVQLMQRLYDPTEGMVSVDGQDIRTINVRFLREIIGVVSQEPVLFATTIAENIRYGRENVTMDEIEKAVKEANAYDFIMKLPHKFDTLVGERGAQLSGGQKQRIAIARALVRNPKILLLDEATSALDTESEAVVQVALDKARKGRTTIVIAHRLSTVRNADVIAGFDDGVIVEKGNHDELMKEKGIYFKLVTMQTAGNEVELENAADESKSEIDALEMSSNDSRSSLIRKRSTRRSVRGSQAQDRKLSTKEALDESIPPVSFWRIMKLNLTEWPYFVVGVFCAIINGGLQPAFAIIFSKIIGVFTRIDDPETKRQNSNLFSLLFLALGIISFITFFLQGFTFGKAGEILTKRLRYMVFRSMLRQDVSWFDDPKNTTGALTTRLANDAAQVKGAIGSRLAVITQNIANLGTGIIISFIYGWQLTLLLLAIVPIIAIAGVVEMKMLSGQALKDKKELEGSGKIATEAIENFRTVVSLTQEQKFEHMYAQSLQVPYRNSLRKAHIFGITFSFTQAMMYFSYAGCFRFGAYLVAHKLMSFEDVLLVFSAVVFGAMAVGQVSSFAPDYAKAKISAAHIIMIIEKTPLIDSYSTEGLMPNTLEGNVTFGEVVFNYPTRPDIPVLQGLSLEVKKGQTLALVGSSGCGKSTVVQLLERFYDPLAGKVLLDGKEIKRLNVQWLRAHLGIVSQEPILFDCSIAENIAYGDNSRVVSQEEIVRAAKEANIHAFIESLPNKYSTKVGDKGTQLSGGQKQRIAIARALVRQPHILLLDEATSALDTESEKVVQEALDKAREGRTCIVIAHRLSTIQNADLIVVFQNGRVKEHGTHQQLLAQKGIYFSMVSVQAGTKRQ

- inhibition at 1.5 min, 150 µM (MRP4; human, probe dehydroepiandrosterone sulfate (DHEAS), 0.5 µM, read-out: Relative inhibition): 98%
- ATP dependent transport (MRP4; mean (n=3) ± SD): 256.00 ± 59.15 pmol/mg/min
- Relative ATP dependent transport (MRP4; mean (n=3) ± SD): 2.06 ± 0.48 % of control
Structure (SMILES): CN(C)C(=O)CCSC(SCCC(=O)O)c1cccc(/C=C/c2ccc3ccc(Cl)cc3n2)c1 (stereo not drawn) [MK-571, reference compound]

- inhibition at 1 min, 1 µM (MDR1; human, probe N-methyl quinidine (NMQ), 1.0 µM): 96%
- Relative ATP dependent transport (MDR1; positive control inhibitor 1.00 µM, NMQ probe, mean (n=3) ± SD): 4.28 ± 0.62 % of control
Structure (SMILES): C/C=C/C[C@@H](C)C(=O)[C@H]1C(=O)N[C@@H](C(C)C)C(=O)N(C)CC(=O)N(C)[C@@H](CC(C)C)C(=O)N[C@@H](C(C)C)C(=O)N(C)[C@@H](CC(C)C)C(=O)N[C@@H](C)C(=O)N[C@H](C)C(=O)N(C)[C@@H](CC(C)C)C(=O)N(C)[C@@H](CC(C)C)C(=O)N(C)[C@@H](C(C)C)C(=O)N1C [Valspodar, reference compound]

Structure (SMILES): O=C([O-])CN(CCN(CC(=O)[O-])Cc1cc(CCC(=O)NCCCCCC(=O)NCCCC[C@H](NC(=O)N[C@@H](CCC(=O)O)C(=O)O)C(=O)O)ccc1[O-])Cc1cc(CCC(=O)O)ccc1[O-].[68Ga+3].[OH3+] [[^68Ga]Ga-PSMA-11]
- Uptake by healthy kidneys and SGs [1]: greatly reduced uptake

Structure (SMILES): O=C([O-])CN1CCN(CC(=O)[O-])CCN(CC(=O)NCC2CCC(C(=O)NC(Cc3ccc4ccccc4c3)C(=O)NCCCCC(NC(=O)NC(CCC(=O)O)C(=O)O)C(=O)O)CC2)CCN(CC(=O)[O-])CC1.[177Lu+3] (stereo not drawn) [[^177Lu]Lu-PSMA-617]
- Accumulation in the kidneys ([2]; kidneys): 0.5–0.6 Gy/GBq injected dose
- Accumulation in the salivary glands ([2]; salivary glands (SGs)): up to 1 Gy/GBq injected dose
- Excreted via the renal route in urine [3]: up to 70%

Source: article PMC11053447, “Human ABC and SLC Transporters: The Culprit Responsible for Unspecific PSMA-617 Uptake?” (Pharmaceuticals, 2024)
